# Counter-ions that a name gives are not always drawn. Like-named read-outs stand apart in the source and are kept apart here.
# Key:
# [1] = test system: sarcoma 45; conditions: rats; cited from earlier work
# [2] = test system: mitochondria from rat liver homogenates and Jensen sarcoma cells; conditions: cited from earlier work
# [3] = test system: hematological fresh human tumour specimens (PHTC); format: cell-based
# [4] = test system: solid fresh human tumour specimens (PHTC); format: cell-based
# [5] = test system: solid tumour types, cell lines and primary cultures of human tumour cells from patients; test: Tumour type specific spectrum of antitumour activity, solid tumour types; format: cell-based; conditions: for Activity in the listed diagnoses of Table 5: 4.0 μM; for Activity against solid tumour types (activity = at least 50% reduction in tumour cell survival): cell lines and PHTC
# [6] = test system: 27 PHTC samples from 9 patients with hematological and 18 patients with solid tumours; test: Circumvention of melphalan resistance, FMCA classification of PHTC samples; format: cell-based, human; conditions: 4 μM
# [7] = test system: Ovarian carcinoma tumor cell system; test: Cytotoxic activity in different tumor models, ovarian carcinoma; format: cell-based, human; conditions: Number 8
# [8] = test system: Adenocarcinoma tumor cell system; test: Cytotoxic activity in different tumor models, adenocarcinoma; format: cell-based, human; conditions: Number 5
# [9] = test system: hematological tumors, primary cultures of human tumor cells from patients (PHTC); format: cell-based
# [10] = test system: Prostate cancer tumor cell system; test: Cytotoxic activity in different tumor models, prostate cancer; format: cell-based, human; conditions: Number 1
# [11] = test system: NSC Lung cancer tumor cell system; test: Cytotoxic activity in different tumor models, NSC lung cancer; format: cell-based, human; conditions: Number 8
# [12] = test system: Breast cancer tumor cell system; test: Cytotoxic activity in different tumor models, breast cancer; format: cell-based, human; conditions: Number 4
# [13] = test system: solid tumors, primary cultures of human tumor cells from patients (PHTC); format: cell-based
# [14] = test system: 8226S (myeloma RPMI 8226); test: cells; format: cell-based, human; conditions: read-out: IC50 (μM), 8226S
# [15] = test system: panel of ten human tumour cell lines; format: cell-based
# [16] = test system: CEM/S (leukemia CCRF-CEM); test: cells; format: cell-based; conditions: Homo sapiens, 72 h, read-out: IC50 (μM), CEM/S
# [17] = test system: U1906L (small cell lung cancer); test: cells; format: cell-based; conditions: Homo sapiens, read-out: IC50 (μM), U1906L
# [18] = test system: U-1568 (non-small cell lung cancer); test: cells; format: cell-based; conditions: Homo sapiens, read-out: IC50 (μM), U-1568
# [19] = test system: U-1752 (non-small cell lung cancer); test: cells; format: cell-based; conditions: Homo sapiens, read-out: IC50 (μM), U-1752
# [20] = test system: U1285 (small cell lung cancer); test: cells; format: cell-based; conditions: Homo sapiens, read-out: IC50 (μM), U1285
# [21] = test system: U1690 (small cell lung cancer); test: cells; format: cell-based; conditions: Homo sapiens, read-out: IC50 (μM), U1690
# [22] = test system: U-1906E (small cell lung cancer); test: cells; format: cell-based; conditions: Homo sapiens, read-out: IC50 (μM), U-1906E
# [23] = test system: NCI-H611 (non-small cell lung cancer); test: cells; format: cell-based; conditions: Homo sapiens, read-out: IC50 (μM), NCI-H611
# [24] = test system: Corpus cancer tumor cell system; test: Cytotoxic activity in different tumor models, corpus cancer; format: cell-based, human; conditions: Number 4
smiles,measurement,setting,value
CCOC(=O)[C@H](CC(C)C)NC(=O)[C@H](Cc1ccc(N(CCCl)CCCl)cc1)NC(C)=O [asaley],Sarcoma 45 growth,[1],inhibited
"CC(C)[C@H](NC(=O)[C@@H](N)Cc1ccc(N(CCCl)CCCl)cc1)C(=O)O [salin, L-melphalanyl-L-valine]",Oxidative phosphorylation in mitochondria,[2],disrupted
"CCC1=C[C@@H]2CN(C1)Cc1c([nH]c3ccccc13)[C@@](C(=O)OC)(c1cc3c(cc1OC)N(C)[C@H]1[C@@](O)(C(=O)OC)[C@H](OC(C)=O)[C@]4(CC)C=CCN5CC[C@]31[C@@H]54)C2 [Vinorelbine, vinorelbine]","Tumor cell survival index %, Hematological (n = 42)",[3],50%
same,"Tumor cell survival index %, Solid (n = 22)",[4],73%
"CCOC(=O)[C@H](Cc1ccc(O)cc1)NC(=O)[C@H](Cc1ccc(N(CCCl)CCCl)cc1)NC(C)=O [astyron, N-acetyl-L-melphalanyl-L-tyrosine ethyl ester]",Sarcoma 45 growth,[1],inhibited
"CC(C)OC(=O)[C@H](Cc1ccc(F)cc1)NC(=O)[C@@H](N)Cc1ccc(N(CCCl)CCCl)cc1.Cl [JV28, L-Melphalanyl-L-p-fluorophenylalanine isopropyl ester hydrochloride]",Activity in the listed diagnoses of Table 5,[5],active in most of these diagnoses
same,Activity against solid tumour types (activity = at least 50% reduction in tumour cell survival),[5],showed activity against several types of solid tumours
same,Number of samples classified EDR (extreme drug resistance),[6],1
same,Number of samples classified IDR (intermediate drug resistance),[6],2
same,Samples classified EDR (%),[6],6%
same,Median response at 4.0 μM >50% reduction in tumor cell survival,[7],Yes
same,Median response at 4.0 μM >50% reduction in tumor cell survival,[8],Yes
same,Activity against hematological PHTC samples compared to melphalan and sarcolysine,[9],more active
same,Median response at 4.0 μM >50% reduction in tumor cell survival,[10],Yes
same,Median response at 4.0 μM >50% reduction in tumor cell survival,[11],Yes
same,Median response at 4.0 μM >50% reduction in tumor cell survival,[12],Yes
same,"Activity against solid tumor samples compared to melphalan, sarcolysine and P2",[13],more active
"CCOC(=O)[C@H](Cc1ccc(N(CCCl)CCCl)cc1)NC(=O)[C@@H](N)Cc1ccc(N(CCCl)CCCl)cc1 [JV27, L-Melphalanyl-L-melphalan ethyl ester hydrochloride]",IC50,[14],1.01 µM
"N.N.[Cl][Pt][Cl] [Cisplatin, cisplatin]","IC50 (μM), MEAN",[15],18.0 µM
"CC[C@]1(O)C[C@H]2CN(CCc3c([nH]c4ccccc34)[C@@](C(=O)OC)(c3cc4c(cc3OC)N(C=O)[C@H]3[C@@](O)(C(=O)OC)[C@H](OC(C)=O)[C@]5(CC)C=CCN6CC[C@]43[C@@H]65)C2)C1 [Vincristine, vincristine]",IC50,[16],0.08 µM
same,"Tumor cell survival index %, Hematological (n = 42)",[3],39%
same,IC50,"[14]; Homo sapiens, RPMI-8226, 72 h",0.01 µM
same,"Tumor cell survival index %, Solid (n = 22)",[4],93%
same,"IC50 (μM), MEAN",[15],30.1 µM
"CCOC(=O)[C@H](Cc1ccccc1)NC(=O)[C@@H](N)Cc1ccc(N(CCCl)CCCl)cc1.Cl [JV22, L-Melphalanyl-L-phenylalanine ethyl ester hydrochloride]","IC50 (μM), MEAN",[15],0.48 µM
"COc1cccc2c1C(=O)c1c(O)c3c(c(O)c1C2=O)C[C@@](O)(C(=O)CO)C[C@@H]3O[C@H]1C[C@H](N)[C@H](O)[C@H](C)O1 [Doxorubicin, doxorubicin]",IC50,[17],0.92 µM
same,IC50,[18],≥ 183 µM
same,IC50,[16],0.18 µM
same,IC50,[19],0.42 µM
same,"Tumor cell survival index %, Hematological (n = 42)",[3],29%
same,IC50,"[14]; Homo sapiens, RPMI-8226, 72 h",0.13 µM
same,IC50,[20],0.52 µM
same,"Tumor cell survival index %, Solid (n = 22)",[4],97%
same,IC50,[21],2.21 µM
same,IC50,[22],0.44 µM
same,"IC50 (μM), MEAN",[15],3.51 µM
same,IC50,[23],≥ 183 µM
"COc1cc([C@@H]2c3cc4c(cc3[C@@H](O[C@@H]3O[C@@H]5CO[C@@H](C)O[C@H]5[C@H](O)[C@H]3O)[C@H]3COC(=O)[C@H]23)OCO4)cc(OC)c1O [Etoposide, etoposide]","Tumor cell survival index %, Hematological (n = 42)",[3],47%
same,"Tumor cell survival index %, Solid (n = 22)",[4],81%
"CCOC(=O)[C@H](Cc1ccc(F)cc1)NC(=O)[C@H](Cc1ccc(N(CCCl)CCCl)cc1)NC(=O)[C@@H]1CCCN1.Cl [Example J3, L-Prolinyl-L-melphalanyl-L-p-fluorophenylalanine ethyl ester hydrochloride]",Activity in the listed diagnoses of Table 5,[5],active
same,Activity against solid tumour types (activity = at least 50% reduction in tumour cell survival),[5],showed activity against several types of solid tumours
same,Number of samples classified EDR (extreme drug resistance),[6],0 (0%)
same,Number of samples classified IDR (intermediate drug resistance),[6],4
same,Samples classified EDR (%),[6],0 (0%)
same,Median response at 4.0 μM >50% reduction in tumor cell survival,[7],Yes
same,Median response at 4.0 μM >50% reduction in tumor cell survival,[8],Yes
same,Activity against hematological PHTC samples compared to melphalan and sarcolysine,[9],more active
same,"Tumor cell survival index (%), Hematological tumors n = 7-11",[9],7%
same,Median response at 4.0 μM >50% reduction in tumor cell survival,[10],Yes
same,Median response at 4.0 μM >50% reduction in tumor cell survival,[24],Yes
same,Median response at 4.0 μM >50% reduction in tumor cell survival,[11],Yes
same,Median response at 4.0 μM >50% reduction in tumor cell survival,[12],Yes
same,"Activity against solid tumor samples compared to melphalan, sarcolysine and P2",[13],more active
"CCOC(=O)[C@H](Cc1ccc(O)cc1)NC(=O)[C@@H](N)Cc1ccc(N(CCCl)CCCl)cc1.Cl [JV24, L-Melphalanyl-L-tyrosine ethyl ester hydrochloride]","IC50 (μM), MEAN",[15],1.05 µM
"CC(=O)O[C@@]12CO[C@@H]1C[C@H](O)[C@@]1(C)C(=O)[C@H](O)C3=C(C)[C@@H](OC(=O)[C@H](O)[C@@H](NC(=O)OC(C)(C)C)c4ccccc4)C[C@@](O)([C@@H](OC(=O)c4ccccc4)[C@H]21)C3(C)C [Docetaxel, docetaxel]",IC50,[17],0.1 µM
same,IC50,[18],5.94 µM
same,IC50,[19],0.46 µM
same,IC50,[20],0.1 µM
same,"Tumor cell survival index %, Solid (n = 22)",[4],67%
same,IC50,[21],7.7 µM
same,IC50,[22],0.1 µM
same,IC50,[23],1.1 µM
Nc1ccn([C@@H]2O[C@H](CO)[C@@H](O)[C@@H]2O)c(=O)n1 [AraC],"Tumor cell survival index %, Solid (n = 22)",[4],102%

# From patent US20040097421A1 (priority 2000, published 2004)
